Structures are written as SMILES. Read-outs that look alike come from different tables or passages of the source.

Assay [1] addresses α2C Human Adrenergic Receptor (Homo sapiens, UniProt P18825). Put plainly: Equilibrium competition binding, [3H] rauwolscine, membranes of transfected LM(tk-) cells.
The target in assay [2] is T1, α2B Human Adrenergic Receptor (Homo sapiens, UniProt P18089).
T1 construct: expressed in transfected cells; host or cells: Y-1 cells
T1 sequence (P18089 1-450): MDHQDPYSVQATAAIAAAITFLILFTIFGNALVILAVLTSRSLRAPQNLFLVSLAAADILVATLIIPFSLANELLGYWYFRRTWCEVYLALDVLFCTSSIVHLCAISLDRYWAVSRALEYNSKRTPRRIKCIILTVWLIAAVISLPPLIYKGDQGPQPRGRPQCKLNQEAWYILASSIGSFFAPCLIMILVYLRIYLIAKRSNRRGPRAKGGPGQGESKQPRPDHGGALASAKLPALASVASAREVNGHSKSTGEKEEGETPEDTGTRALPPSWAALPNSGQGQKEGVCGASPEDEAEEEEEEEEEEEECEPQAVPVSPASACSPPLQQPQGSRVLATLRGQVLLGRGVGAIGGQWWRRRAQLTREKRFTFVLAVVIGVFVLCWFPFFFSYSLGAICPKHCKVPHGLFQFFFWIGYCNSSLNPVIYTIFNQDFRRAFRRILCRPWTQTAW
Put plainly: Equilibrium competition binding, [3H] rauwolscine, membranes of transfected Y-1 cells.

Assay [3] addresses T2, α2C Human Adrenergic Receptor (Homo sapiens, UniProt P18825).
T2 sequence (P18825 1-462): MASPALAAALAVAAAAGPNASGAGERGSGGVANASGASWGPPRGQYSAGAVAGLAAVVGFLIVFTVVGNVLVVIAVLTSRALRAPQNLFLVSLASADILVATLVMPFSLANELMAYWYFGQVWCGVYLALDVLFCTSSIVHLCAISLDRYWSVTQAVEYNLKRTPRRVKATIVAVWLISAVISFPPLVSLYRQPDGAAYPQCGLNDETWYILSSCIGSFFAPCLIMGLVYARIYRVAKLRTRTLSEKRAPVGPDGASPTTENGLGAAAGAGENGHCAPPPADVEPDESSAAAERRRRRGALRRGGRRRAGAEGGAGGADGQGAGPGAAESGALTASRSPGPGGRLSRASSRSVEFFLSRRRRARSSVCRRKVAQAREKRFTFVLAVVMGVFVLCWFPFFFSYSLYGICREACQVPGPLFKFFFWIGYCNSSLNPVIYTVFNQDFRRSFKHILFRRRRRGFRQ
Put plainly: Equilibrium competition binding, [3H] rauwolscine, membranes of transfected LM(tk-) cells. The source holds these as a separate data set.

The target in assay [4] is T3, α1C Human Adrenergic Receptor (Homo sapiens, UniProt P35348).
T3 construct: expressed in transfected cells; host or cells: LM(tk-) cells
T3 sequence (P35348 1-466): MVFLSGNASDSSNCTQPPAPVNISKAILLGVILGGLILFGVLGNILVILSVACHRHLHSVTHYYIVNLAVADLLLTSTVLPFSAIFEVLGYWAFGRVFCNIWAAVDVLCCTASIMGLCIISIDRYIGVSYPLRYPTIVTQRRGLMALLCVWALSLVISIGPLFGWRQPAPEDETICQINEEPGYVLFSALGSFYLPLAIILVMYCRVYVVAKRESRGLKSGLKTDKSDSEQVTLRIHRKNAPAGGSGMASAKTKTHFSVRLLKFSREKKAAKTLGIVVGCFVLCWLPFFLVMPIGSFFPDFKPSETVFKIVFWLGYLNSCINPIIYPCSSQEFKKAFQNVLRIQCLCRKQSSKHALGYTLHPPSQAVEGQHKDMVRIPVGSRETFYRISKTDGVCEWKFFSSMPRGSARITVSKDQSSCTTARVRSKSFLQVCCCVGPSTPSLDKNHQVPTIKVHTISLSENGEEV
Put plainly: Equilibrium competition binding, [3H] prazosin, membranes of transfected LM(tk-) cells. The protocol: (§1) Binding and functional assays were performed using stably transfected human alpha adrenergic receptors. Equilibrium competition binding assays were performed with membrane preparations from cultured LM(tk-) cells stably transfected with the cloned human adrenoceptor subtypes except for α2b, which was expressed in Y-1 cells, using [^3H] prazosin for α1 receptors and [^3H] rauwolscine for α2 receptors.
(§2) Transfected cells from culture flasks were scraped into 5 ml of 5 mM Tris-HCl, 5 mM EDTA, pH 7.5, and lysed by sonication. The cell lysates were centrifuged at 1000 rpm for 5 min at 4° C., and the supernatant was centrifuged at 30,000×g for 20 min at 4° C. The pellet was suspended in 50 mM Tris-HCl, 1 mM MgCl2, and 0.1% ascorbic acid at pH 7.5. Binding of α2 antagonist [^3H] rauwolscine ([…]) to membrane preparations of LM(tk-) cells was done in a final volume of 0.25 ml and incubated at 37° C. for 20 min. Nonspecific binding was determined in the presence of 10 μM phentolamine. The reaction was stopped by filtration through GF/B filters using a cell harvester.
The construct involved ligation three partial overlapping fragments: a 5′ 0.6 kb HincII genomic clone, a central 1.8 EcoRI hippocampal cDNA clone, and a 3′ 0.6 Kb PstI genomic clone. The hippocampal cDNA fragment overlaps with the 5′ and 3′ genomic clones so that the HincII and PstI sites at the 5 and 3′ ends of the cDNA clone, respectively, were utilized for ligation. This full-length clone was cloned into the KpnI site of the expression vector, using the 5′ and 3′ KpnI sites of the fragment, derived from vector (i.e., pBluescript) and 3′-untranslated sequences, respectively. Stable cell lines were selected as described above.

For assay [5], the target named is T4, α1B Human Adrenergic Receptor (Homo sapiens, UniProt P35368).
T4 construct: The entire coding region of α1B(1563 bp); expressed in transfected cells; host or cells: LM(tk-) cells
T4 sequence (P35368 1-520): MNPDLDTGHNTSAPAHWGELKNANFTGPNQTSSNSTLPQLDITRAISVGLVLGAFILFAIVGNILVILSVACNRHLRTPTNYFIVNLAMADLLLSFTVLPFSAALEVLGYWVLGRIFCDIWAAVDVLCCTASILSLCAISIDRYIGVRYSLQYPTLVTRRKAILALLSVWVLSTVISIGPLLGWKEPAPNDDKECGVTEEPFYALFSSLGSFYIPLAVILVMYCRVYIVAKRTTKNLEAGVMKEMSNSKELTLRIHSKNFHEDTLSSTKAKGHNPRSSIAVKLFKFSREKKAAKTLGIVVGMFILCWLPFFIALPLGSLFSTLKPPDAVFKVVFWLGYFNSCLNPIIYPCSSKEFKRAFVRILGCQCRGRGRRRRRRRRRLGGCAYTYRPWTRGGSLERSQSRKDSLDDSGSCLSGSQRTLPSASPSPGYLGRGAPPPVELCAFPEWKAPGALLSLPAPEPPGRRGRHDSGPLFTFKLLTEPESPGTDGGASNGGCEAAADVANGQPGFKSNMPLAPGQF
Described as above. The protocol:
as §1, §2
The construct involved ligating the full-length containing EcoRI brainstem cDNA fragment from ZapII into the expression vector. The stable cell lines were selected as described above.

Assay [6] has as its target T5, α1A Human Adrenergic Receptor (Homo sapiens, UniProt P25100).
T5 construct: expressed in transfected cells; host or cells: LM(tk-) cells
T5 sequence (P25100 1-572): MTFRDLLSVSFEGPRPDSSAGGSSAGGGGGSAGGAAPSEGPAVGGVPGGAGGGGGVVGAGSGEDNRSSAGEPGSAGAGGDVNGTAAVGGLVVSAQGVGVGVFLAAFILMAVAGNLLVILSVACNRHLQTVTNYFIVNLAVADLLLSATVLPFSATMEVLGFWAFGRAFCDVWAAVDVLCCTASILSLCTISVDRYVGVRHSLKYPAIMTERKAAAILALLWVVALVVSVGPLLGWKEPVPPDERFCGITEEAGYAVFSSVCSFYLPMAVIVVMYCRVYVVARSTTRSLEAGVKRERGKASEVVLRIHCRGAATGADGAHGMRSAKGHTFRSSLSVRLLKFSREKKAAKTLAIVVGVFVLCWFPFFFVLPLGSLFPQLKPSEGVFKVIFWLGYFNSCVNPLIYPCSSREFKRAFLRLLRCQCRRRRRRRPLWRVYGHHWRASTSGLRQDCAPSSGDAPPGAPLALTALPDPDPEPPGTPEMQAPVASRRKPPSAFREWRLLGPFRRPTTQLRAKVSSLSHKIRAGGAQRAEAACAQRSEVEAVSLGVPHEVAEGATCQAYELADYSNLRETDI
Described as above. The method, then:
as §1, §2
Stable cell lines were selected as described above.

[7] abbreviates: cloned human receptor, [3H] rauwolscine, read-out: pKi Alpha-2 B (converted).
The mark [8] stands for this setting: cloned human receptor, [3H] prazosin, read-out: pKi Alpha-1 C (converted).
Where [9] appears, read: cloned human receptor, [3H] prazosin, read-out: pKi Alpha-1 B (converted).
[10] abbreviates: cloned human receptor, [3H] rauwolscine.
The mark [11] stands for this setting: cloned human receptor, [3H] prazosin.

In assay [1], `CCc1nc2ccc(NC3=NCCN3)c(Br)c2[nH]1` registered a Ki of 182 nM.
The compound `CCCCc1cc(NC2=NCCN2)cc2[nH]cnc12` yielded a Ki in assay [1] of 204 nM.
As to `CCCn1cnc2ccc(NC3=NCCN3)cc21` [Example 15, 3-Propyl-5-(2-imidazolin-2-ylamino)Benzimidazole], the Ki is 724 nM in assay [2] (setting [7]); 871 nM in assay [3]; 4900 nM in assay [4] (setting [8]); 34700 nM in assay [5] (setting [9]); 6460 nM in assay [6].
For the compound `c1ccc(Cn2cnc3ccc(NC4=NCCN4)cc32)cc1` [Example 34, 3-Benzyl-5-(2-imidazolin-2-ylamino)Benzimidazole], the Ki was 89.1 nM in assay [2] (setting [7]); 186 nM in assay [3]; 1350 nM in assay [4]; 12000 nM in assay [5]; 2570 nM in assay [6].
Take `CC(C)(C)c1nc2ccc(NC3=NCCN3)c(Br)c2[nH]1`: in assay [1], the Ki was 295 nM.
Take `c1cc2ncn(C3CCCC3)c2cc1NC1=NCCN1` [Example 27, 3-Cyclopentyl-5-(2-imidazolin-2-ylamino)Benzimidazole]: the Ki in assay [2] was 1020 nM; in assay [3], 724 nM; in assay [4] (setting [8]) it was 6920 nM; in assay [5] (setting [9]), 33900 nM; in assay [6] it was 8320 nM.
In the case of `Brc1c(NC2=NCCN2)ccc2c1ncn2Cc1ccccc1` [Example 33, 1-Benzyl-4-bromo-5-(2-imidazolin-2-ylamino)Benzimidazole], the Ki was 13.8 nM in assay [2] (setting [7]); 162 nM in assay [3]; 1450 nM in assay [4] (setting [8]); 33100 nM in assay [5] (setting [9]); 1820 nM in assay [6] (cloned human receptor, [3H] prazosin, read-out: pKi Alpha-1 A (converted)).
Consider `CC(C)n1cnc2cc(NC3=NCCN3)ccc21` [Example 17, 1-Isopropyl-5-(2-imidazolin-2-ylamino)Benzimidazole], for which the Ki in assay [2] was 661 nM; in assay [3], 832 nM; in assay [4] (setting [8]), 9120 nM; in assay [5], 44700 nM; in assay [6], 10500 nM.
With `c1ccc(Cn2cnc3cc(NC4=NCCN4)ccc32)cc1` [Example 32, 1-Benzyl-5-(2-imidazolin-2-ylamino)Benzimidazole], the Ki was 50.1 nM in assay [2] (setting [7]); 162 nM in assay [3]; 3890 nM in assay [4]; 33100 nM in assay [5]; 3720 nM in assay [6].
Regarding `CCCn1cnc2c(Br)c(NC3=NCCN3)ccc21` [Example 14, 1-Propyl-4-bromo-5-(imidazolin-2-ylamino)Benzimidazole], in assay [2] (setting [10]), the “pKi Alpha-2 B” value turned out to be 6.66. Further, the “pKi Alpha-2 C” value in assay [3] (setting [10]) is on record as 6.64. In assay [4] (setting [11]), the “pKi Alpha-1 C” value is on record as 6.21. The “pKi Alpha-1 B” value in assay [5] (setting [11]) worked out at 4.69. Besides, in assay [6] (setting [11]), the “pKi Alpha-1 A” value stood at 5.63.
Regarding `CC(C)Cn1cnc2cc(NC3=NCCN3)ccc21` [Example 22, 1-Isobutyl-5-(2-imidazolin-2-ylamino)Benzimidazole], the Ki in assay [2] is 427 nM; in assay [3] it was 182 nM; in assay [4] (setting [8]), 1860 nM; in assay [5] (setting [9]), 105000 nM; in assay [6] it was 10500 nM.
For `Cn1cnc2cc(NC3=NCCN3)ccc21`, the Ki in assay [1] is 155 nM.
For the compound `Brc1c(NC2=NCCN2)ccc2ncn(Cc3ccccc3)c12` [Example 35, 3-Benzyl-4-bromo-5-(2-imidazolin-2-ylamino)Benzimidazole], the Ki in assay [2] (setting [7]) is 15.8 nM; in assay [3] it was 17 nM; in assay [4], 794 nM; in assay [5], 1950 nM; in assay [6], 309 nM.
For the compound `c1cc2c(cc1NC1=NCCN1)ncn2C1CCCC1` [Example 25, 1-Cyclopentyl-5-(2-imidazolin-2-ylamino)Benzimidazole], the Ki in assay [2] was 646 nM; in assay [3], 437 nM; in assay [4] (setting [8]), 9770 nM; in assay [5] (setting [9]), 44700 nM; in assay [6] it was 6170 nM.
`Cc1cc(NC2=NCCN2)cc2[nH]cnc12`: the Ki in assay [1] came to 126 nM.
For the compound `Cc1cc2nc[nH]c2cc1NC1=NCCN1`, the Ki in assay [1] came out at 214 nM.
On the same count and under the same terms, for `CCCCc1c(NC2=NCCN2)ccc2nc[nH]c12` the value was 120 nM.

The record behind these values is patent US6403626B1, “Benzimidazole derivatives” (Synaptic Pharmaceutical Corporation, priority 1994, dated 2002).
